Data from publication PMC4386068 (Journal of chemical information and modeling, 2015).

Target: InhA (Mtb enoyl-acyl-carrier-protein reductase) (Mycobacterium tuberculosis, UniProt P9WGR1)
Assay: InhA enzyme inhibition assay, % inhibition at […] without pre-incubation
Format: biochemical
Settings: read-out: % inhibition at 100 nM

Chain of InhA (Mtb enoyl-acyl-carrier-protein reductase) (P9WGR1 whole entry, looked up): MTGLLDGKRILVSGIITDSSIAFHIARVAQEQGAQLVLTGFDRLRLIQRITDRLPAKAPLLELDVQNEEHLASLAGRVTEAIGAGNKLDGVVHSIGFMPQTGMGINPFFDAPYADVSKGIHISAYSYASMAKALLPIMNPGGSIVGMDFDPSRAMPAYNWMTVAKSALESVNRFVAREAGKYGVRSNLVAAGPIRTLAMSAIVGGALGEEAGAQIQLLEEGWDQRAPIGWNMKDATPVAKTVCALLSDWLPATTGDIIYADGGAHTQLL

CCCCCCc1ccc(Oc2ccccc2C)c(O)c1 [PT70]
inhibition at 0.1 µM: 75%
